Tests used:
[1] = tested on: C. glabrata ATCC 2001; assay: GI yeast burden after a single caspofungin dose; type: in vivo, Candida glabrata
[2] = tested on: C. glabrata 2001 Δmsh2; assay: Systemic breakthrough (blood and organs) after dexamethasone immunosuppression; type: in vivo, Candida glabrata; settings: day 15
Procedure: Six-week-old female outbred CF-1 immunocompetent mice (Charles River Laboratories) were treated (subcutaneously [s.c.]) with 320 mg/kg of piperacillin-tazobactam (PTZ; 8:1 ratio) beginning on day −2 to clear native intestinal bacterial flora. Daily PTZ treatment was maintained throughout the experiment (see Fig. 3A). On day 0, mice were inoculated via oral gavage with approximately 1.5 × 10^8 CFU of C. glabrata in 100 μl of saline. Mice were colonized with ATCC 2001 (CBS 138), clinical strains from the Perlin Laboratory collection, or mutator strain 2001 Δmsh2 ([19]). Fresh fecal samples were collected throughout the experiment to assess fungal burden in the GI tract. Daily administration of caspofungin (0.5, 5, or 20 mg/kg, i.p.), nikkomycin Z (100 mg/kg, oral) (Sigma), or saline (100 μl i.p.) was initiated on day 3 postinoculation and continued through sacrifice day (typically day 15). Caspofungin-resistant colony frequencies were determined through selection of fecal samples on yeast extract-peptone-dextrose (YPD) plates supplemented with caspofungin (2 μg/ml), PTZ (16 μg/ml), and chloramphenicol (20 μg/ml). The corticosteroid dexamethasone (DMX) was administered twice daily (100 mg/kg, i.p.) for 3 days (days 12 to 14) prior to euthanization (day 15; Fig. 3A). […]

[3] = Single-dose pharmacokinetics in plasma and GI lumen contents; type: in vivo, mice; settings: LC-MS/MS; for large intestine mean Cmax / small intestine mean Cmax: lumen contents, mean of three mice
Procedure: Mice were colonized with ATCC 2001 and then treated (i.p.) once with 5 or 20 mg/kg caspofungin at time zero (2 days postinoculation). Three mice from each treatment group were sacrificed at each time point (0, 1, 2, 4, 8, 16, 24, and 48 h), and blood and small and large intestinal lumen contents (without intestinal walls) were collected. Fecal pellets were also collected from mice at 0, 4, 16, 24, and 48 h prior to sacrifice. Caspofungin levels in plasma and GI compartments were measured by liquid chromatography-tandem mass spectrometry (LC-MS/MS) in electrospray positive-ionization mode (ESI+) on an AB Sciex QTrap 4000 triple-quadrupole mass spectrometer combined with an Agilent 1260 high-performance liquid chromatograph (HPLC) using the Analyst software and multiple-reaction monitoring (MRM) of precursor/product transitions. The MRM transitions used were 547.50/538.40 for caspofungin and 455.4/165.2 for the internal standard verapamil. Chromatography was performed with an Agilent Zorbax SB-C8 column (2.1 by 30 mm; particle size, 3.5 μm) using a reverse-phase gradient elution. One-tenth percent formic acid in Milli-Q deionized water was used for the aqueous mobile phase and 0.1% formic acid in acetonitrile (ACN) for the organic mobile phase. Small and large intestinal contents were homogenized prior to extraction by combining 3 parts PBS buffer to 1 part GI tract contents. One milligram per milliliter dimethyl sulfoxide (DMSO) stock was serially diluted in 50/50 ACN-water to create standard curves and quality control spiking solutions. Twenty microliters of neat spiking solutions was added to 20 μl of drug-free mouse K2EDTA plasma (Bioreclamation) or GI tract homogenate, and extraction was performed by adding 200 μl of acetonitrile-methanol 50/50 protein precipitation solvent containing 10 ng/ml verapamil (Sigma). Extracts were vortexed for 5 min and centrifuged at 4,000 rpm for 5 min. The supernatants were analyzed by LC-MS. Sample analysis was accepted if the concentrations of the quality control samples were within 20% of the nominal concentration.

[4] = tested on: C. glabrata 2001 Δmsh2; assay: Murine C. glabrata GI colonization model: GI/fecal burden under daily treatment; type: in vivo, Candida glabrata
Procedure: Six-week-old female outbred CF-1 immunocompetent mice (Charles River Laboratories) were treated (subcutaneously [s.c.]) with 320 mg/kg of piperacillin-tazobactam (PTZ; 8:1 ratio) beginning on day −2 to clear native intestinal bacterial flora. Daily PTZ treatment was maintained throughout the experiment (see Fig. 3A). On day 0, mice were inoculated via oral gavage with approximately 1.5 × 10^8 CFU of C. glabrata in 100 μl of saline. Mice were colonized with ATCC 2001 (CBS 138), clinical strains from the Perlin Laboratory collection, or mutator strain 2001 Δmsh2 ([19]). Fresh fecal samples were collected throughout the experiment to assess fungal burden in the GI tract. Daily administration of caspofungin (0.5, 5, or 20 mg/kg, i.p.), nikkomycin Z (100 mg/kg, oral) (Sigma), or saline (100 μl i.p.) was initiated on day 3 postinoculation and continued through sacrifice day (typically day 15). Caspofungin-resistant colony frequencies were determined through selection of fecal samples on yeast extract-peptone-dextrose (YPD) plates supplemented with caspofungin (2 μg/ml), PTZ (16 μg/ml), and chloramphenicol (20 μg/ml). The corticosteroid dexamethasone (DMX) was administered twice daily (100 mg/kg, i.p.) for 3 days (days 12 to 14) prior to euthanization (day 15; Fig. 3A). Blood, kidneys, liver, spleen, and the gastrointestinal tract components were collected on day 15 (or earlier where indicated), homogenized, and plated onto YPD plates supplemented with chloramphenicol (75 μg/ml) and ampicillin (50 μg/ml) to determine CFU levels.

[5] = tested on: C. glabrata Δmsh2 mutant cells; assay: In vitro caspofungin-resistant colony frequency after nikkomycin pretreatment; type: cell-based, Candida glabrata; settings: cells incubated with nikkomycin Z for 2 h prior to plating on agar with 2 μg/ml caspofungin
Procedure: FIG 4 Nikkomycin reduces C. glabrata caspofungin resistance and tolerance formation in vitro. (A) Caspofungin-resistant colony frequencies following selection on agar plates containing 2 μg/ml caspofungin. Cells were incubated with the indicated concentrations of nikkomycin Z for 2 h prior to plating. (B) Killing assay with strains grown in the presence or absence of 128 μg/ml nikkomycin Z (Nz) and increasing concentrations of caspofungin. The mean counts from three independent biological experiments ± standard deviations are shown.

[6] = tested on: C. glabrata wild-type and Δmsh2 cells; assay: In vitro killing assay; type: cell-based, Candida glabrata; settings: 128 μg/ml nikkomycin Z, caspofungin 0.016 to 32 μg/ml, RPMI, 37°C, 24 h; three independent experiments
Procedure: Fresh 1-ml RPMI cultures (plus necessary amino acids) of C. glabrata (1 × 10^7 cells) were incubated at 37°C while shaking (165 rpm) for 24 h in 2-fold increasing concentrations (0.016 to 32 μg/ml) of caspofungin and in the presence (128 μg/ml) or absence of nikkomycin Z. After 24 h, 100 μl of the appropriate dilutions for each culture was plated onto YPD plates. CFU were counted 24 h after plating and data represented as the CFU per milliliter that survived at each concentration of drug.

[7] = single i.p. dose, both 5 and 20 mg/kg, lumen contents without intestinal walls, three mice per time point

| SMILES | GI burden levels after single dose ([1]; single i.p. dose 5 mg/kg) | GI burden levels after single dose ([1]; single i.p. dose 20 mg/kg) | bloodstream infection ([2]; caspofungin 5 mg/kg i.p. daily) | bloodstream infection ([2]; caspofungin 20 mg/kg i.p. daily) | Tmax ([3]; mouse, plasma, ip, single i.p. dose, both 5 and 20 mg/kg, colonized CF-1 mice, three mice per time point, read-out: time of Cmax, plasma) | large intestine mean Cmax ([3]; single i.p. dose 5 mg/kg) | small intestine mean Cmax ([3]; single i.p. dose 5 mg/kg) | large intestine mean Cmax ([3]; single i.p. dose 20 mg/kg) | small intestine mean Cmax ([3]; single i.p. dose 20 mg/kg) | time of Cmax, large intestine [3, 7] | time of Cmax, small intestine [3, 7] | change in GI burden ([4]; caspofungin 0.5 mg/kg i.p. daily) | change in GI burden ([4]; caspofungin 5 mg/kg i.p. daily) | decrease in average GI burden ([4]; caspofungin 20 mg/kg i.p. daily from day 3, following 5 days of treatment, 10 mice per group) | GI burden after rebound to baseline ([4]; caspofungin 20 mg/kg i.p. daily, by day 11) | decrease in fecal burden ([4]; following 4 days of 20 mg/kg caspofungin) | average decrease of colonization levels throughout the GI tract ([4]; following 4 days of 20 mg/kg caspofungin, one mouse per condition) | effect on caspofungin-resistant colony frequency [5] | effect on killing by caspofungin [6] |
| --- | --- | --- | --- | --- | --- | --- | --- | --- | --- | --- | --- | --- | --- | --- | --- | --- | --- | --- | --- |
| CC[C@H](C)C[C@H](C)CCCCCCCCC(=O)N[C@H]1C[C@@H](O)[C@@H](NCCN)NC(=O)[C@@H]2[C@@H](O)CCN2C(=O)[C@H]([C@H](O)CCN)NC(=O)[C@H]([C@H](O)[C@@H](O)c2ccc(O)cc2)NC(=O)[C@@H]2C[C@@H](O)CN2C(=O)[C@H]([C@@H](C)O)NC1=O [caspofungin] | minimal decrease and faster recovery to baseline | decreased by 16 h and then returned to original baseline levels by 48 h | no isolates were recovered from the blood | no isolates were recovered from the blood | 2 h | 3.8 µg/mL | 9.1 µg/mL | 36.2 µg/mL | 22.2 µg/mL | 8 h | 4 h | unchanged | unchanged | ~2.5 log | ~1 × 10^8 CFU/g of stool | 2.8 log | 2.7 log | – | – |
| C[C@@H]([C@H](N)C(=O)N[C@H](C(=O)O)[C@H]1O[C@@H](n2ccc(=O)[nH]c2=O)[C@H](O)[C@@H]1O)[C@H](O)c1ccc(O)cn1 [nikkomycin, nikkomycin Z] | – | – | – | – | – | – | – | – | – | – | – | – | – | – | – | – | – | reduced the frequency of caspofungin-resistant mutants | increased the killing ability of caspofungin |
